Data: BigSolDB 2.1

CC(=O)Nc1ccc(OC(=O)c2ccccc2OC(C)=O)cc1
solubility (mole fraction)
Settings | 278.15 K | 283.15 K | 288.15 K | 293.15 K | 298.15 K | 303.15 K | 308.15 K | 313.15 K | 318.15 K | 323.15 K
in DMAc | 0.058 | 0.0623 | 0.0687 | 0.075 | 0.0814 | 0.0875 | 0.0954 | 0.103 | 0.112 | 0.12
in DMSO | – | – | – | 0.0385 | 0.0463 | 0.0544 | 0.0637 | 0.0743 | 0.0865 | 0.1
in methyl acetate | 0.0011 | 0.00138 | 0.00164 | 0.00199 | 0.00238 | 0.00289 | 0.00344 | 0.00412 | 0.00496 | 0.00602
in n-butyl acetate | 0.000482 | 0.000609 | 0.000727 | 0.000899 | 0.00106 | 0.0013 | 0.0016 | 0.00189 | 0.00229 | 0.00272
in n-pentyl acetate | 0.000309 | 0.000392 | 0.000509 | 0.000638 | 0.000794 | 0.000983 | 0.00121 | 0.00149 | 0.0018 | 0.00217
in n-propyl acetate | 0.00053 | 0.000653 | 0.000831 | 0.00104 | 0.00127 | 0.00154 | 0.00186 | 0.00221 | 0.00275 | 0.00324
